Common to all, as to assay: MTT assay
Holding throughout (assay type): cell-based, human

The test system of one assay is MDA-MB 231 (Breast). The note with it: MDA-MB 231, 48 h; NA stands for Not Active. How it is done: (§1) Human cancer cell lines HepG2 (Liver), SK-MEL-1 (Skin), HT 018 (Colon), HeLa (Cervical), and MDA-MB 231 (Breast) were procured from the American Type Culture Collection (Rockville, MD, USA). MDA-MB-231 and HepG2 cell lines were maintained in DMEM; whereas SK-MEL-1, HeLa, and HT-018 were maintained in RPMI medium. The complete growth medium was supplemented with 10% (v/v) heat-inactivated FCS, 2 mM L-glutamine, and antimycotic-antibiotic solution. All of the cells were maintained in a standard culture condition of 37 °C temperature and 95% humidified atmosphere containing 5% CO2. Cells were screened periodically for mycoplasma contamination.
(§2) The novel complexes 1 and 2 were examined for their cytotoxicity against five different types of cancer cell lines viz., HepG2, SK-MEL-1, HT 018, HeLa, and MDA-MB 231 using a standard MTT reduction assay, according to Khan et al. (2012). Briefly, cells at a concentration of 1 × 10^6 cells/[…]/well were plated in 96-well plates and further grown in their respective medium containing 10% FCS. After 24 h, cells were incubated with 0–25 μM concentrations of test complexes or respective free ligands. Cells with 0.1% DMSO (vehicle control) and cisplatin (positive control) were also cultured under the same conditions. Cells only were used as negative control. Ensuing 48 h of incubation, old medium from treated cells was replaced with fresh medium. MTT reagent (5 mg/mL in PBS) was added to each well, and cells were further incubated for 2–3 h at 37 °C. After treatment, the supernatants were carefully removed, and 100 μL of DMSO was added to each well. Absorbance was measured at 620 nm in a multi-well plate reader, and drug sensitivity was expressed in terms of the concentration of drug required for a 50% reduction of cell viability (IC50).

A further assay deals with HeLa (Cervical). The following applies: 48 h, NA stands for Not Active. The procedure:
as §1, §2

The test system of another assay is SK-MEL-1 (Skin). The following applies: SK-MEL-1, 48 h; NA stands for Not Active. How it is done:
as §1, §2

The test system of a further assay is HepG2 (Liver). The note with it: HepG2, 48 h; NA stands for Not Active. How it is done:
as §1, §2

A further assay deals with HT018 (Colon). The following applies: HT018, 48 h; NA stands for Not Active. The procedure:
as §1, §2

The IC50 is the concentration that gives 50% inhibition. As to `N.N.[Cl][Pt][Cl]` [Cisplatin, cisplatin, reference compound], the IC50 with MDA-MB 231 (Breast) worked out at 3.1 ± 0.2 µM; with HeLa (Cervical), 6 ± 0.6 µM; in the assay with SK-MEL-1 (Skin), 5.6 ± 0.8 µM; in the assay with HepG2 (Liver), 6 ± 0.4 µM; in the assay on HT018 (Colon) it was 5.7 ± 0.2 µM.

Source of the values: PMC5983663, “Design, Synthesis, and Biological Evaluation of Benzimidazole-Derived Biocompatible Copper(II) and Zinc(II) Complexes as Anticancer Chemotherapeutics” (International Journal of Molecular Sciences, 2018).
